Entries after “also recorded” stand apart in the source; their conditions may differ.
Experiments:
SMP30 [1] = experiment: Expression of SMP30 in liver cells by immunoblotting; assay type: in vivo; settings: wild type mice; 100 mg/kg oral before CCl4; compared with CCl4 only (G2)
Method: (§1) Wild type mice and SMP30 knock-out mice were divided, by 5 of each, into negative control groups (G1, G5), positive control groups (G2, G6), two of experimental group 1 (G3, G7) and two of experimental group 2 (G4, G8) (Table 1). Intraperitoneal administration of olive oil was performed once to negative control mice (G1, G5), while intraperitoneal administration of CCl4 (0.4 ml/kg) was performed once to positive control mice (G2, G6). In the meantime, 100 mg/kg of vitamin C dissolved in tap water was orally administered to experimental group 1 mice (G3, G7) one day before the intraperitoneal administration of CCl4 (0.4 ml/kg). 100 mg/kg of arazyme dissolved in tap water was orally administered to experimental group 2 mice (G4, G8) one day before the intraperitoneal administration of CCl4 (0.4 ml/kg). 24 hours after the administration of CCl4, autopsy was performed in every mouse and samples were taken from each mouse for histopathological test.
(§2) The expression of SMP30 in liver cells was investigated by immunoblotting. First, the liver tissues frozen at −70° C. were homogenized in RIPA buffer containing 0.1 mM sodium orthovandate (Na3VO4) and protease inhibitor cocktail tablet (Roche, Mannheim, Germany). […] Protein concentration was measured by Bradford method and each protein sample proceeded onto 10% SDS-polyacrylamide gel at the concentration of 80 µg/well, followed by electrophoresis. […]

P-smad3 [2] = experiment: Immunohistochemical observation of P-smad3 expression in liver cells; assay type: in vivo, mice; settings: 100 mg/kg oral before CCl4
SMP30 [3] = experiment: Immunohistochemical observation of SMP30 in liver cells; assay type: in vivo; settings: wild type mice, 100 mg/kg oral before CCl4, compared with CCl4 alone
Method: as §1
To observe SMP30 in liver cells immunohistochemically, paraffin embedded tissues fixed with formalin were cut into 4 μm thick sections, followed by deparaffinization. To inhibit the activity of endogenous peroxidase, the sections were treated in 3% H2O2 for 30 minutes and washed with 0.01 M PBS. To increase antigen expression of the tissues, the sections were treated with 0.01 M citrate buffer, followed by heat treatment using microwave. […]

P-smad3 [4] = experiment: Expression of P-smad3 in liver cells by immunoblotting; assay type: in vivo; settings: SMP30 knock-out mice; compared with CCl4 alone (G6)
Method: as §1, §2

liver cells = experiment: Histopathological observation on liver cells (H&E) in CCl4-induced acute liver injury; assay type: in vivo, mice; settings: for necrosis in liver cells: 100 mg/kg oral one day before CCl4 0.4 ml/kg i.p., autopsy 24 hours after CCl4
Source text: In the present invention, male wild type C57BL/6(WT) at 12 weeks and SMP30 knock-out C57BL/6(KO) mice were used to induce liver injury by CCl4 and then the relation of SMP30 with arazyme was investigated. 10 male and 20 female SMP30 knock-out C57BL/6 mice were distributed from Tokyo Metropolitan Institute of Gerontology, which were then raised in the animal laboratory at Department of Pathology, College of Veterinary Medicine, Kyungpook National University, Korea. Among F1 mice generated by breeding, knock-out mice were selected by tail DNA genotyping by PCR.
Wild type mice were quarantined and adapted for 7 days in the animal laboratory. During the adaptation, every symptom was checked and only healthy animals were selected. Both wild type and SMP30 knock-out mice were 12 weeks old, excluding the difference in age.
Rats were adapted and raised in an animal facility where temperature was regulated to 22±3° C., humidity was adjusted to 55±10% and light was also regulated to 12L/12D (08:00 lights on, 20:00 lights out). The environmental conditions were checked regularly (every three months). After environmental evaluation, no changes in important conditions were recognized. During the whole experiment period, rats were raised in polycarbonate cages [240 W×390 L×175 H (mm)] by up to 5 per cage. Skin mark using an oil magic pen and individual identification card were used for distinguishment. Feed for laboratory animals (PMI Nutrition International, 505 North 4th Street Richmond, in 47374, USA) was provided at any time after being sterilized by irradiation (13.2 kGy). Tap water was provided using a water bottle at any time after being purified by a carbon filter. Carbon tetrachloride was diluted in olive oil at the concentration of 0.4 ml/kg and administered to […] once to induce liver injury. 24 hours after the administration, autopsy was performed.
Wild type mice and SMP30 knock-out mice were divided, by 5 of each, into negative control groups (G1, G5), positive control groups (G2, G6), two of experimental group 1 (G3, G7) and two of experimental group 2 (G4, G8) (Table 1). […]

O=C1O[C@H]([C@@H](O)CO)C(O)=C1O [vitamin C, L-ascorbic acid, reference compound]
SMP30 expression (immunoblotting) (SMP30 [1]): high | P-smad3 immune response (immunohistochemistry) (P-smad3 [2]; SMP30 knock-out mice, G6, G7 compared with G8): strongly detected | P-smad3 immune response (immunohistochemistry) (P-smad3 [2]; wild type mice, compared with CCl4 only (G2), 100 mg/kg): strong immune response against P-smad3 was detected in group 2 (G2) treated with CCl4 only, compared with the groups (G3, G4) treated with vitamin C and arazyme; also recorded: strongly observed in CCl4 treated group (G2), compared with the groups treated with vitamin C and arazyme (G3, G4) | SMP30 expression (immunohistochemistry) (SMP30 [3]): higher; also recorded: more strongly expressed | P-smad3 expression (immunoblotting) (P-smad3 [4]): inhibited | necrosis in liver cells (liver cells; SMP30 knock-out C57BL/6 mice): significantly inhibited | necrosis in liver cells (liver cells; wild type C57BL/6 mice): significantly inhibited | apoptosis of liver cells, histological observation (liver cells; wild type and SMP30 knock-out mice with acute liver injury): inhibition of apoptosis of liver cells was observed
